Laboratory results published in patent publication US9084828B2, “Oligomer-protein tyrosine kinase inhibitor conjugates” (Nektar Therapeutics, priority 2009, dated 2015).

What was measured:
AKT3 = AKT3 (Homo sapiens, UniProt Q9Y243); assay: Activity against various protein tyrosine kinases: AKT3; type: biochemical
Erk1 = Erk1 (Homo sapiens, UniProt P27361); assay: Activity against various protein tyrosine kinases: Erk1; type: biochemical
FGFR2(N549H) = FGFR2(N549H) (Homo sapiens, UniProt P21802, N549H); assay: Activity against various protein tyrosine kinases: FGFR2(N549H); type: biochemical
FGFR2(N549H), sequence (P21802 22-821 N549H, species assumed): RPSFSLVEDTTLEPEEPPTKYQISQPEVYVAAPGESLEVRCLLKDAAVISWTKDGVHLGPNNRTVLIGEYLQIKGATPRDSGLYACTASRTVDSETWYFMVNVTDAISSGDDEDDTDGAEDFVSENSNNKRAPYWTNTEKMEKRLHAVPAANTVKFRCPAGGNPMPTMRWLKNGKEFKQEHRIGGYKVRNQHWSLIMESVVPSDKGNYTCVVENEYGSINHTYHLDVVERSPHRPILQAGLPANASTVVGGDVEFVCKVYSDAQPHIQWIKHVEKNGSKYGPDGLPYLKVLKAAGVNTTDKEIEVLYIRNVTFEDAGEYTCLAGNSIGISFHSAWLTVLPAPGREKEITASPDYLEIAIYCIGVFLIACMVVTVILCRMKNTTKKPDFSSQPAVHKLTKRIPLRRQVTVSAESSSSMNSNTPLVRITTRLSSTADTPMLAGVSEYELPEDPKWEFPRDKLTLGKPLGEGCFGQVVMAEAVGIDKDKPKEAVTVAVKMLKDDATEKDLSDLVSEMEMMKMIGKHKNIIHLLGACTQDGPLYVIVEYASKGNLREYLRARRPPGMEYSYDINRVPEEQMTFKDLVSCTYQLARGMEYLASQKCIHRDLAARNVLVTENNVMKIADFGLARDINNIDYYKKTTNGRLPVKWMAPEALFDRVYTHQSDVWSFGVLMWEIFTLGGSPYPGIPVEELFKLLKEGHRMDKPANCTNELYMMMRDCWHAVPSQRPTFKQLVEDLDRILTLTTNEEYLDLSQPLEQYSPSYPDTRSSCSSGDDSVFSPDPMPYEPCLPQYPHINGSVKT

INSR = INSR (Homo sapiens, UniProt P06213); assay: Activity against various protein tyrosine kinases: INSR; type: biochemical
INSR, sequence (P06213 28-1382, species assumed): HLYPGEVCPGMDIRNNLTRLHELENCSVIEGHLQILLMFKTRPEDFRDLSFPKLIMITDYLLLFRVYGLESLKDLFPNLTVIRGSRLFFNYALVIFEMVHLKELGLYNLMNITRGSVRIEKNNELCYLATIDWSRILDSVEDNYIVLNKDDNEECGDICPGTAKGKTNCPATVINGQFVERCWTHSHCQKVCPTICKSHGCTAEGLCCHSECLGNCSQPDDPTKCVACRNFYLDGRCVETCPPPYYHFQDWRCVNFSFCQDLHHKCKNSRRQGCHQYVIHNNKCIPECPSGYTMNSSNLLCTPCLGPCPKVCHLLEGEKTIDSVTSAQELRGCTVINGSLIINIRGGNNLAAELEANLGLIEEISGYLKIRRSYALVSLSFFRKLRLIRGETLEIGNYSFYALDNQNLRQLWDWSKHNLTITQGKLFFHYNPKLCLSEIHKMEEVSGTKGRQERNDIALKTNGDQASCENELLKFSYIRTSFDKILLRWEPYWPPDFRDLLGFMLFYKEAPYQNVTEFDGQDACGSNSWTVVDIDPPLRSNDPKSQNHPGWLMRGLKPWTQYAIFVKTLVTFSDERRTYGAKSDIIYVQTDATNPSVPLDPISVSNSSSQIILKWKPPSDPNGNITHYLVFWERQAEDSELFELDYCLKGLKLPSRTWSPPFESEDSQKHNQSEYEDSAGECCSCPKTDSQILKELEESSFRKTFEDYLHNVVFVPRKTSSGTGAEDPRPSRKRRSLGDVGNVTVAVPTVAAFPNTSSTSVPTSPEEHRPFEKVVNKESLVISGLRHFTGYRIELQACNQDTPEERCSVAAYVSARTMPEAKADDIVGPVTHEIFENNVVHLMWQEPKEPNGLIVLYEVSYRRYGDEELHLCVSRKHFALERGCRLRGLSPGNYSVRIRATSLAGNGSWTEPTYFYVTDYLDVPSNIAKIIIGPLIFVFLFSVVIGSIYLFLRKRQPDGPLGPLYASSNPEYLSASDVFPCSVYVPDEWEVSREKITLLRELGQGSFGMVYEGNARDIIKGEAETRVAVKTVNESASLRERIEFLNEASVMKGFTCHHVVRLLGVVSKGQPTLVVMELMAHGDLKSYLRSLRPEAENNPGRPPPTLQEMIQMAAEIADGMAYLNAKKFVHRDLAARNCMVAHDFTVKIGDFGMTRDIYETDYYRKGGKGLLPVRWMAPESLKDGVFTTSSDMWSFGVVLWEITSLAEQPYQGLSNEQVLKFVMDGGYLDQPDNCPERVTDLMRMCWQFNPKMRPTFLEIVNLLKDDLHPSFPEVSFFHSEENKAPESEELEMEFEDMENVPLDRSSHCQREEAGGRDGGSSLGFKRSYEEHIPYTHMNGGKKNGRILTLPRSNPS

p38-delta = biological target: T1, p38-delta (Homo sapiens, UniProt O15264); assay: Activity against various protein tyrosine kinases: p38-delta; type: biochemical
T1 sequence (O15264 1-365): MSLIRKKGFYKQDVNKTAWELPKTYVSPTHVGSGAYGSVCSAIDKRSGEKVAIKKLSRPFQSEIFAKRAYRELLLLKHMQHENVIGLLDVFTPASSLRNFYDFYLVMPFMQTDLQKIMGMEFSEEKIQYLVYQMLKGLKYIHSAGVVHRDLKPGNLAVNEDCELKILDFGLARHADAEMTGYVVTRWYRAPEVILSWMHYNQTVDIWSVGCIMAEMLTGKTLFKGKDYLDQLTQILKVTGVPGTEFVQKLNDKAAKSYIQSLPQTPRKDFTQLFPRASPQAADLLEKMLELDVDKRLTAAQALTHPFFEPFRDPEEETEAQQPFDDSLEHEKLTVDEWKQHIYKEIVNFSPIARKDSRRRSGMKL

PKG1-beta = biological target: T2, PKG1-beta (Homo sapiens, UniProt Q13976); assay: Activity against various protein tyrosine kinases: PKG1-beta; type: biochemical
T2 sequence (Q13976 1-686 isoform Q13976-2): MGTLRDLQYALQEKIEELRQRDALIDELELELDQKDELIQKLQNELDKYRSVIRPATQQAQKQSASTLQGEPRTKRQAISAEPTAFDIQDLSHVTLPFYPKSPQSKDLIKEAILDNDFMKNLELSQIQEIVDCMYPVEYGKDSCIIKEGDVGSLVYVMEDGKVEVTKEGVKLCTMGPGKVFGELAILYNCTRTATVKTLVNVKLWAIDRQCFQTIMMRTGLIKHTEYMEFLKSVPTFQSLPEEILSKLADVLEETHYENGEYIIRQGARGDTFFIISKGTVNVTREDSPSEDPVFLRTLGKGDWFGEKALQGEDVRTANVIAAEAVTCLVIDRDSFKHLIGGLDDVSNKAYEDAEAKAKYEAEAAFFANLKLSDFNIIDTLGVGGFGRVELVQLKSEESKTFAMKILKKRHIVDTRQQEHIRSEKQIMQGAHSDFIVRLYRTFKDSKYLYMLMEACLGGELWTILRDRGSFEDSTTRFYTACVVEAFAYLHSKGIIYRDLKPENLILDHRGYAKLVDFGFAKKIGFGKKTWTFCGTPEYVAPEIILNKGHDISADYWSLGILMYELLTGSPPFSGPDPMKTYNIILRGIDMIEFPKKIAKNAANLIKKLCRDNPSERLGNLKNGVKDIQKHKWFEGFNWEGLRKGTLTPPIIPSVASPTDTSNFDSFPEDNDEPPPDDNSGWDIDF

PRAK = biological target: T3, PRAK (Homo sapiens, UniProt Q8IW41); assay: Activity against various protein tyrosine kinases: PRAK; type: biochemical
T3 sequence (Q8IW41 1-473): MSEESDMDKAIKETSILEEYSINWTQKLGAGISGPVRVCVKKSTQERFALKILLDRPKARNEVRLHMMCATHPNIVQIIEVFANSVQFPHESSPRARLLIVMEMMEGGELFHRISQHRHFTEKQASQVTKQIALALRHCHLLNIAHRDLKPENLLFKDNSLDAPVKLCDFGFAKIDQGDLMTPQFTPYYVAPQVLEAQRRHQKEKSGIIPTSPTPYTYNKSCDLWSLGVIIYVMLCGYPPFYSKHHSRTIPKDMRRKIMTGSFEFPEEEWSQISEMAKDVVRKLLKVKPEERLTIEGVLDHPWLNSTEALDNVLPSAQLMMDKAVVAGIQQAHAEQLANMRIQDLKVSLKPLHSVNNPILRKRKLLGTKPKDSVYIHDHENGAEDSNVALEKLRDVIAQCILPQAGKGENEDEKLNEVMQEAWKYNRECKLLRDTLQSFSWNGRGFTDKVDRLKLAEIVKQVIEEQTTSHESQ

RSK1 = RSK1 (Homo sapiens, UniProt Q15418); assay: Activity against various protein tyrosine kinases: RSK1; type: biochemical
RSK1, sequence (Q15418 whole entry, species assumed): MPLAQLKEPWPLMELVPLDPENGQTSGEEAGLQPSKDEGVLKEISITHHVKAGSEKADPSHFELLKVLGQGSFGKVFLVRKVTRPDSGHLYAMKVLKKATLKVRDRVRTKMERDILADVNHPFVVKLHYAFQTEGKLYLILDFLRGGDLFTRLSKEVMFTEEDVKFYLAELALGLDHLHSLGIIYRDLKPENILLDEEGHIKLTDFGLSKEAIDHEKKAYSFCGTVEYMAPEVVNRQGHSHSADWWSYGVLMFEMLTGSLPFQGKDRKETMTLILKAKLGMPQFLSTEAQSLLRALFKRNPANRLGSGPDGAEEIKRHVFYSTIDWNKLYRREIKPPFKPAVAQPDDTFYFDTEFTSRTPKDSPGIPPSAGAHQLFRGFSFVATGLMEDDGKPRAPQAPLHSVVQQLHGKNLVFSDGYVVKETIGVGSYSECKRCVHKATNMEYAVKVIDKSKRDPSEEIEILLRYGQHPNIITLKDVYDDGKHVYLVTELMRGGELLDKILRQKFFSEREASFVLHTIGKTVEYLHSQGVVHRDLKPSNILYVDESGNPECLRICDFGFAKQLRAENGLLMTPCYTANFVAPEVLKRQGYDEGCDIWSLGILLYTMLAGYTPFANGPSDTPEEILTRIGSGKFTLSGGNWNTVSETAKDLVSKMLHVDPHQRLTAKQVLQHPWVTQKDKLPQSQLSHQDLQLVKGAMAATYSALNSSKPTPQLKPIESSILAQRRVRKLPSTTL

TSSK1 = biological target: T4, TSSK1 (Homo sapiens, UniProt Q9BXA7); assay: Activity against various protein tyrosine kinases: TSSK1; type: biochemical
T4 sequence (Q9BXA7 1-367): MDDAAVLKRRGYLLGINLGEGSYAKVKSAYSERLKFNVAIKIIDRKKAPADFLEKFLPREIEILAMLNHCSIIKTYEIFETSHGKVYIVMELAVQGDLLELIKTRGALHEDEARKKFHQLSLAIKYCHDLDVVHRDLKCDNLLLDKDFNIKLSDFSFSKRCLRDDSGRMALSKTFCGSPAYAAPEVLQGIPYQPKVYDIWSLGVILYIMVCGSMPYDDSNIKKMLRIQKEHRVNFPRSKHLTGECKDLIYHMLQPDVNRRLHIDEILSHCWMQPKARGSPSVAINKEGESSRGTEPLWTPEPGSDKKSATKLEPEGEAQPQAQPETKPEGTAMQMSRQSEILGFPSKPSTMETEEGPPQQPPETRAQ

YES = YES (Homo sapiens, UniProt P07947); assay: Activity against various protein tyrosine kinases: YES; type: biochemical
YES, sequence (P07947 whole entry, species assumed): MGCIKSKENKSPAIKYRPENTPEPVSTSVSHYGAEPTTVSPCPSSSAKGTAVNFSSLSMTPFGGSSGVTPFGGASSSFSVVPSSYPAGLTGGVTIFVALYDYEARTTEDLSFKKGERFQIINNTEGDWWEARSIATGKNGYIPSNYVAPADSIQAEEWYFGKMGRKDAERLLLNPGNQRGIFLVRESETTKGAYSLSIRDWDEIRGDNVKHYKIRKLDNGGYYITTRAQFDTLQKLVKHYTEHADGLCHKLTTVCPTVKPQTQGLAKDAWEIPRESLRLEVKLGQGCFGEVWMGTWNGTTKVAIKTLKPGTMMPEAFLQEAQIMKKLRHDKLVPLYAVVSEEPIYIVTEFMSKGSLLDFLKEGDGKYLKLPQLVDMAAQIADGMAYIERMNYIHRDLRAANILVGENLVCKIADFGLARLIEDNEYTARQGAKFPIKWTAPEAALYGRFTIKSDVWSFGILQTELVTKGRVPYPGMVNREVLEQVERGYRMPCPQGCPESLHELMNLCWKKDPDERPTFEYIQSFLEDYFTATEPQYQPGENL

ABL [1] = biological target: T5, ABL (Homo sapiens, UniProt P00519); assay: Activity against various protein tyrosine kinases: ABL; type: biochemical; set-up: purchased MILLIPORE 14-529
T5 sequence (P00519 whole entry): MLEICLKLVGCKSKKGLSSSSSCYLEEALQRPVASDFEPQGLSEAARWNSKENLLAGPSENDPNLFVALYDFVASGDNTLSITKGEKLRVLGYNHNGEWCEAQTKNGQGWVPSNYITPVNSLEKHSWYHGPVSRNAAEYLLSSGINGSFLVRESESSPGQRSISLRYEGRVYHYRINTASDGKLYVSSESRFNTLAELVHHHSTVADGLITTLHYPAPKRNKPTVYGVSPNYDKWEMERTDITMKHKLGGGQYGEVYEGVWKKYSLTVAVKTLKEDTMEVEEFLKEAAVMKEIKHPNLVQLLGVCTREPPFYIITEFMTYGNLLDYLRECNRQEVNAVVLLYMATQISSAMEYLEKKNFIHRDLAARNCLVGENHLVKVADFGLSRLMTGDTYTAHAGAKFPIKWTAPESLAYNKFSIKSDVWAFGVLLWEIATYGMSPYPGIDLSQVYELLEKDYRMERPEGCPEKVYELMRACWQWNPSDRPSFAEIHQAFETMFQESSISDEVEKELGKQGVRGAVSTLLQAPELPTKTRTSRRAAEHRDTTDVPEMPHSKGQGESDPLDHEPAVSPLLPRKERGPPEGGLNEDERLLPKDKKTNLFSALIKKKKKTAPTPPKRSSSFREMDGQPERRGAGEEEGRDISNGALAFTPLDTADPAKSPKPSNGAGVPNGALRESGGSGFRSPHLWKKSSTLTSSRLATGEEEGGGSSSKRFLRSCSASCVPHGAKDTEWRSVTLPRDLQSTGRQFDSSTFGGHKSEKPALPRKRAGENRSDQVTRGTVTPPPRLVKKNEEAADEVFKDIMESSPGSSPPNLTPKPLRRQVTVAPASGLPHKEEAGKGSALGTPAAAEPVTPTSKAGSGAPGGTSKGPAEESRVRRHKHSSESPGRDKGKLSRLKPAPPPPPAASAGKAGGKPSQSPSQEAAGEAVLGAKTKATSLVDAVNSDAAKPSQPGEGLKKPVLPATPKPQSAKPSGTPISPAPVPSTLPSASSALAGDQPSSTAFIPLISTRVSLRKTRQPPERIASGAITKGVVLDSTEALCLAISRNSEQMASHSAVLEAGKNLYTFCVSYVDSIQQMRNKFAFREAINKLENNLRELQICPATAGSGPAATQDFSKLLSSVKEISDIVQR
Experimental: Using techniques know those of ordinary skill in the art, compounds were tested for activity against various protein tyrosine kinases.

ABL [2] = biological target: T5, ABL; assay: ABL tyrosine kinase inhibition, off-chip incubation mobility-shift kinase assay (Caliper LABCHIP 3000); conditions: for IC50: ABL, ATP at Km 14 μM, unit inferred; for ABL AVG % Activity at Specific Concentration: average of replicate wells
[3] = at 1.0E−09 (concentration unit not given)
[4] = at 1.0E−10 (concentration unit not given)
[5] = at 1.0E−11 (concentration unit not given)
[6] = at 3.0E−09 (concentration unit not given)
[7] = at 3.0E−10 (concentration unit not given)
[8] = at 3.0E−11 (concentration unit not given)

AKT3, sequence (Q9Y243 whole entry, species assumed): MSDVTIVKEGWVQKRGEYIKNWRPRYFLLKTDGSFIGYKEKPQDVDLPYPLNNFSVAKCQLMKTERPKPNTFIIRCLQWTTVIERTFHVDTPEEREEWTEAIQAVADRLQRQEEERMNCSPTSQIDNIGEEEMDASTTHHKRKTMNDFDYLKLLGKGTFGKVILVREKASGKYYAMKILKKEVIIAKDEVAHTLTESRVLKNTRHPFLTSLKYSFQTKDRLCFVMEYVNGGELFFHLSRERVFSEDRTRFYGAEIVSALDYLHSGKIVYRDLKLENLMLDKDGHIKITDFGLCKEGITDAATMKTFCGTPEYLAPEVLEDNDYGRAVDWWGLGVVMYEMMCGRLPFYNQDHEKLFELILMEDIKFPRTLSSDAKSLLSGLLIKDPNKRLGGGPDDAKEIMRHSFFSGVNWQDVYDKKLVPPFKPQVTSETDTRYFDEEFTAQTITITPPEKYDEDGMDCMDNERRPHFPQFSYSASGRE

## COCCOCCOCCNC(=O)OCCN1CCN(c2cc(Nc3ncc(C(=O)Nc4c(C)cccc4Cl)s3)nc(C)n2)CC1 [mPEG3-NHCOO-Dasatinib]
AKT3
  % Inhibition at 10 nM: 0%
  % Inhibition at 1 μM: −1%
Erk1
  % Inhibition at 10 nM: 3%
  % Inhibition at 1 μM: 2%
FGFR2(N549H)
  % Inhibition at 10 nM: 7%
  % Inhibition at 1 μM: 75%
INSR
  % Inhibition at 10 nM: 1%
  % Inhibition at 1 μM: −1%
p38-delta
  % Inhibition at 10 nM: 0%
  % Inhibition at 1 μM: 2%
PKG1-beta
  % Inhibition at 10 nM: −2%
  % Inhibition at 1 μM: 0%
PRAK
  % Inhibition at 10 nM: 6%
  % Inhibition at 1 μM: 4%
RSK1
  % Inhibition at 10 nM: 2%
  % Inhibition at 1 μM: 0%
TSSK1
  % Inhibition at 10 nM: −1%
  % Inhibition at 1 μM: 0%
YES
  % Inhibition at 10 nM: 100%
  % Inhibition at 1 μM: 100%
ABL [1]
  % Inhibition at 10 nM: 99%
  % Inhibition at 1 μM: 99%
ABL [2]
  IC50: 0.3 nM
ABL [2]; [3]
  ABL AVG % Activity at Specific Concentration: 4%
ABL [2]; [4]
  ABL AVG % Activity at Specific Concentration: 81%
ABL [2]; [5]
  ABL AVG % Activity at Specific Concentration: 99%
ABL [2]; [6]
  ABL AVG % Activity at Specific Concentration: 0%
ABL [2]; [7]
  ABL AVG % Activity at Specific Concentration: 47%
ABL [2]; [8]
  ABL AVG % Activity at Specific Concentration: 95%

## COCCOCCOCCOCCOCCOCCOCCNC(=O)OCCN1CCN(c2cc(Nc3ncc(C(=O)Nc4c(C)cccc4Cl)s3)nc(C)n2)CC1 [mPEG7-NHCOO-Dasatinib]
AKT3
  % Inhibition at 10 nM: −3%
  % Inhibition at 1 μM: −2%
Erk1
  % Inhibition at 10 nM: 3%
  % Inhibition at 1 μM: 4%
FGFR2(N549H)
  % Inhibition at 10 nM: 5%
  % Inhibition at 1 μM: 63%
INSR
  % Inhibition at 10 nM: 2%
  % Inhibition at 1 μM: 3%
p38-delta
  % Inhibition at 10 nM: 0%
  % Inhibition at 1 μM: 0%
PKG1-beta
  % Inhibition at 10 nM: −3%
  % Inhibition at 1 μM: −3%
PRAK
  % Inhibition at 10 nM: 8%
  % Inhibition at 1 μM: 0%
RSK1
  % Inhibition at 10 nM: 0%
  % Inhibition at 1 μM: 4%
TSSK1
  % Inhibition at 10 nM: −3%
  % Inhibition at 1 μM: −5%
YES
  % Inhibition at 10 nM: 100%
  % Inhibition at 1 μM: 102%
ABL [1]
  % Inhibition at 10 nM: 99%
  % Inhibition at 1 μM: 99%
ABL [2]
  IC50: 0.32 nM
ABL [2]; [3]
  ABL AVG % Activity at Specific Concentration: 4%
ABL [2]; [4]
  ABL AVG % Activity at Specific Concentration: 80%
ABL [2]; [5]
  ABL AVG % Activity at Specific Concentration: 98%
ABL [2]; [6]
  ABL AVG % Activity at Specific Concentration: −1%
ABL [2]; [7]
  ABL AVG % Activity at Specific Concentration: 48%
ABL [2]; [8]
  ABL AVG % Activity at Specific Concentration: 91%
